Target: T1, human GABA A receptor α5β3γ2 (hα5) (Homo sapiens, UniProt P18507+P31644)
T1 construct: expressed in transfected cells; host or cells: HEK293 (transient transfection); membranes prepared from cell pellets
Test: [3H]flumazenil competition binding, human GABA A α5β3γ2 receptors in HEK293 cells
Conditions: displacement of [3H]flumazenil 0.5 nM; HEK293 cells transiently transfected with human receptors; mean of two determinations
Method: Membrane Preparation and Binding Assay
The affinity of compounds at GABA A receptor subtypes was measured by competition for [3H]flumazenil (85 Ci/mmol; Roche) binding to HEK293 cells expressing rat (stably transfected) or human (transiently transfected) receptors of composition α1β3γ2, α2β3γ2, α3β3γ2 and α5β3γ2.
Cell pellets were suspended in Krebs-tris buffer (4.8 mM KCl, 1.2 mM CaCl2, 1.2 mM MgCl2, 120 mM NaCl, 15 mM Tris; pH 7.5; binding assay buffer), homogenized by polytron for ca. 20 sec on ice and centrifuged for 60 min at 4° C. (50000 g; Sorvall, rotor: SM24=20000 rpm). The cell pellets were resuspended in Krebs-tris buffer and homogenized by polytron for ca. 15 sec on ice. Protein was measured (Bradford method, Bio-Rad) and aliquots of 1 mL were prepared and stored at −80° C.
Radioligand binding assays were carried out in a volume of […] (96-well plates) which contained […] of cell membranes, [3H]flumazenil at a concentration of 1 nM for α1, α2, α3 subunits and 0.5 nM for α5 subunits and the test compound in the range of […]. Nonspecific binding was defined by 10^−5 M diazepam and typically represented less than 5% of the total binding. […] After drying, filter-retained radioactivity was detected by liquid scintillation counting. Ki values were calculated using Excel-Fit (Microsoft) and are the means of two determinations. […]

Ki: 77.9 nM
SMILES: Cc1onc(-c2ccccc2)c1-c1ncc2ccccn12 [Example 1, 3-(5-Methyl-3-phenyl-isoxazol-4-yl)-imidazo[1,5-a]pyridine]

Source: patent publication US7399769B2, “Aryl-isoxazol-4-yl-imidazo[1,5-a]pyridine derivatives” (Hoffmann-La Roche Inc., priority 2005, dated 2008)
